According to patent US20170197935A1, “INHIBITORS OF DNA GYRASE FOR THE TREATMENT OF BACTERIAL INFECTIONS” (Vitas Pharma Research Private Limited, priority 2012, published 2017):
Values after ≈ are worked out from the molar mass of the structure shown. Where two headings read alike, the source gives them in different places.

What was measured:
[1] = tested on: Methicillin resistant Staphylococcus aureus (ATCC 33591); experiment: MIC by microbroth dilution, MRSA ATCC 33591; format: cell-based
Procedure: (§1) Shown below are the microbiological activities of representative compounds of Formula I of the invention. The compounds were tested by the microbroth dilution method (National committee for Clinical Laboratory Standards, 2011, M07-08) and the Minimum Inhibitory Concentration (MIC) was determined.
(§2) Analysis of microbiological activity of compounds shown below are the microbiological activities of representative compounds of Formula II of the invention. The compounds were tested by the microbroth dilution method as per the reference in Example 1.

E. coli (ATCC 25922) = experiment: MIC by microbroth dilution, E. coli ATCC 25922; format: cell-based; conditions: Escherichia coli
Procedure: as §1, §2

[2] = Single dose pharmacokinetics in male Swiss albino mice; format: in vivo; conditions: mouse, in vivo; for bioavailability: oral 10 mg/kg vs i.v. 5 mg/kg
Procedure: (§3) Compounds were dosed to male Swiss albino mice to determine the pharmacokinetic profiles.
as §3

E. faecalis ATCC 51299 = experiment: MIC by microbroth dilution, E. faecalis ATCC 51299; format: cell-based; conditions: Enterococcus faecalis, ATCC51299, Formula II compounds, read-out: Minimum Inhibitory Concentration (MIC) E. faecalis ATCC 51299
Procedure: as §1, §2

Acinetobacter BAA747 = experiment: MIC by microbroth dilution, Acinetobacter BAA747; format: cell-based; conditions: Formula II compounds, read-out: Minimum Inhibitory Concentration (MIC) Acinetobacter BAA747
Procedure: as §1, §2

Pseudomonas ATCC 27853 = experiment: MIC by microbroth dilution, Pseudomonas ATCC 27853; format: cell-based; conditions: ATCC27853, Formula II compounds, read-out: Minimum Inhibitory Concentration (MIC) Pseudomonas ATCC 27853
Procedure: as §1, §2

[3] = molecular target: T1, ciprofloxacin resistant recombinant Gyrase protein (with mutation S83L) (Escherichia coli, UniProt P0AES4+P0AES6, S83L); experiment: Gyrase supercoiling assay with ciprofloxacin resistant Gyrase (S83L); format: biochemical; conditions: read-out: Target specificity: % inhibition of supercoiling activity
T1 construct: purchased Inspiralis
Procedure: The enzyme is incubated with the substrate (relaxed DNA) in the presence and absence of compounds for 1 hour at 37° C. and the DNA is run on a gel at low voltage for several hours. The amount of supercoiled DNA is quantified using DNA imaging and quantification software (Image Lab). The activity of the enzyme is proportional to the amount of supercoiled form detected.

hERG = hERG (Homo sapiens, UniProt Q12809); experiment: biochemical
Procedure: To test the ability of the VT-03 compounds to bind the hERG channel, membranes expressing the hERG channel were incubated with radiolabeled Astemizole and displacement of the labeled ligand in the presence of compounds was measured.
To test the ability of the VT-03 compounds (of Formula II) to bind the hERG channel, membranes expressing the hERG channel were incubated with radiolabeled Astemizole and displacement of the labeled ligand in the presence of compounds was measured.

[4] = tested on: Staphylococcus aureus (ATCC 29213); experiment: MIC by microbroth dilution, Staphylococcus aureus ATCC 29213; format: cell-based; conditions: ATCC29213
Procedure: (§4) Shown below are the microbiological activities of representative compounds of Formula I of the invention. The compounds were tested by the microbroth dilution method (National committee for Clinical Laboratory Standards, 2011, […]-08) and the Minimum Inhibitory Concentration (MIC) was determined.

[5] = tested on: Streptococcus pneumoniae (ATCC 6301); experiment: MIC by microbroth dilution, Streptococcus pneumoniae ATCC 6301; format: cell-based; conditions: ATCC6301
Procedure: as §4

[6] = tested on: Enterococcus faecalis (ATCC 29212); experiment: MIC by microbroth dilution, Enterococcus faecalis ATCC 29212; format: cell-based; conditions: ATCC29212
Procedure: as §4

[7] = tested on: Moraxella catarrhalis (ATCC 8176); experiment: MIC by microbroth dilution, Moraxella catarrhalis ATCC 8176; format: cell-based; conditions: ATCC8176
Procedure: as §4

[8] = tested on: K. pneumoniae (ATCC 700603); experiment: MIC by microbroth dilution, K. pneumoniae ATCC 700603; format: cell-based; conditions: Klebsiella pneumoniae, ATCC700603, Formula I compounds
Procedure: as §1, §2

MRSA E9823 = experiment: MIC against FQ resistant clinical strain MRSA E9823; format: cell-based; conditions: Staphylococcus aureus, fluoroquinolone resistant clinical strain, read-out: MIC against FQ resistant strains, MRSA E9823
Procedure: as §1
(§5) To test if compounds are able to overcome fluoroquinolone resistance, we have determined the MICS against Fluoroquinolone (FQ) resistant clinical strains of MRSA and E. coli.

MRSA E9749 = experiment: MIC against FQ resistant clinical strain MRSA E9749; format: cell-based; conditions: Staphylococcus aureus, fluoroquinolone resistant clinical strain, read-out: MIC against FQ resistant strains, MRSA E9749
Procedure: as §1, §5

E. coli E1851 = experiment: MIC against FQ resistant clinical strain E. coli E1851; format: cell-based; conditions: Escherichia coli, fluoroquinolone resistant clinical strain, read-out: MIC against FQ resistant strains, E. coli E1851
Procedure: (§6) The compounds were tested by the microbroth dilution method (National committee for Clinical Laboratory Standards, 2011, M07-08) and the Minimum Inhibitory Concentration (MIC) was determined.

E. coli U1306 = experiment: MIC against FQ resistant clinical strain E. coli U1306; format: cell-based; conditions: Escherichia coli, fluoroquinolone resistant clinical strain, read-out: MIC against FQ resistant strains, E. coli U1306
Procedure: as §6

E. coli U5690 = experiment: MIC against FQ resistant clinical strain E. coli U5690; format: cell-based; conditions: Escherichia coli, fluoroquinolone resistant clinical strain, read-out: MIC against FQ resistant strains, E. coli U5690
Procedure: as §6

E. coli 86 = experiment: MIC against FQ resistant clinical strain E. coli 86; format: cell-based; conditions: Escherichia coli, fluoroquinolone resistant clinical strain, read-out: MIC against FQ resistant strains, E. coli 86
Procedure: as §6

E. coli Gyrase = molecular target: T2, E. coli Gyrase (Escherichia coli, UniProt P0AES4+P0AES6); experiment: in vitro Gyrase supercoiling assay (Inspiralis kit); format: biochemical; conditions: 1 hour at 37° C., read-out: % inhibition of DNA supercoiling activity
T2 construct: purchased Inspiralis
Procedure: To test for target specificity, the activity of compounds was evaluated in an in vitro Gyrase assay using recombinant Gyrase protein as per the instructions of the assay kit (Inspiralis). The assay measures the ability of E. coli Gyrase to convert relaxed plasmid DNA into the supercoiled form. The enzyme is incubated with the substrate (relaxed DNA) in the presence and absence of compounds for 1 hour at 37° C. and the DNA is run on a gel at low voltage for several hours. The gel is then stained with Ethidium bromide and DNA in the different forms is quantified using DNA imaging and quantification software (Image Lab). The activity of the enzyme is proportional to the amount of supercoiled form detected.

[9] = Formula II compounds, read-out: Minimum Inhibitory Concentration (MIC) MRSA ATCC 33591
[10] = ATCC25922, Formula II compounds, read-out: Minimum Inhibitory Concentration (MIC) E. coli ATCC 25922
[11] = ATCC33591, Formula I compounds, read-out: MIC Methicillin resistant Staphylococcus aureus (ATCC 33591)
[12] = ATCC25922, Formula I compounds, read-out: MIC E. coli (ATCC 25922)

MIC [4] [µg/mL]	MIC [1, 11] [µg/mL]	MIC [5] [µg/mL]	MIC [6] [µg/mL]	MIC (E. coli (ATCC 25922); [12]) [µg/mL]	SMILES	MIC [1, 9] [µg/mL]	MIC (E. coli (ATCC 25922); [10]) [µg/mL]	MIC (E. faecalis ATCC 51299) [µg/mL]	MIC (Acinetobacter BAA747) [µg/mL]	MIC (Pseudomonas ATCC 27853) [µg/mL]	inhibition at 0.1 µM [3] [%]	inhibition at 1 µM [3] [%]	further results
					Cc1ccc(CNC2CCN(CCn3c(=O)cnc4ccc(Cl)nc43)CC2)cc1[N+](=O)[O-] [VT-03-00118]	0.015 (≈ 0.0328 µM)	0.25 (≈ 0.547 µM)	0.125 (≈ 0.274 µM)	0.25 (≈ 0.547 µM)	8 (≈ 17.5 µM)	91.5	89	AUC(0-t) ([2]; iv, 5 mg/kg): 497 ng·h/mL; Cmax ([2]; iv, 5 mg/kg): 913 ng/mL; Tmax ([2]; iv, 5 mg/kg): 9.6 min; half-life ([2]; iv, 5 mg/kg): 22.2 min; bioavailability [2]: 1.12%; AUC(0-t) ([2]; oral, 10 mg/kg): 9.3 ng·h/mL; Cmax ([2]; oral, 10 mg/kg): 18.6 ng/mL; Tmax ([2]; oral, 10 mg/kg): 60 min; half-life ([2]; oral, 10 mg/kg): 666 min; IC50 (hERG): > 30 µM
0.25 (≈ 0.526 µM)	0.5 (≈ 1.05 µM)	0.25 (≈ 0.526 µM)	2 (≈ 4.21 µM)	4 (≈ 8.41 µM)	COc1ccc2ncc(C#N)c(CCN3CCC(NCc4ccc(OC)c([N+](=O)[O-])c4)CC3)c2c1 [VT-03-00063]								MIC [7]: 0.25 µg/mL (≈ 0.526 µM); MIC [8]: > 32 µg/mL; IC50 (hERG): > 30 µM
					Cc1ccc(CNC2CCN(CCn3c(=O)cnc4ccc(C#N)cc43)CC2)cc1F [VT-03-00103]	0.03 (≈ 0.0715 µM)	0.5 (≈ 1.19 µM)	0.25 (≈ 0.596 µM)	1 (≈ 2.38 µM)	32 (≈ 76.3 µM)	55.8	87.5	
					COc1ccc2ncc(=S)n(CCN3CCC(NCc4ccc(C)c([N+](=O)[O-])c4)CC3)c2c1 [VT-03-00127]	0.125 (≈ 0.267 µM)	1 (≈ 2.14 µM)	1 (≈ 2.14 µM)	1 (≈ 2.14 µM)	8 (≈ 17.1 µM)	39	72	AUC(0-t) ([2]; iv, 5 mg/kg): 527 ng·h/mL; Cmax ([2]; iv, 5 mg/kg): 478 ng/mL; Tmax ([2]; iv, 5 mg/kg): 9.6 min; half-life ([2]; iv, 5 mg/kg): 120 min; bioavailability [2]: 18.8%; AUC(0-t) ([2]; oral, 10 mg/kg): 198 ng·h/mL; Cmax ([2]; oral, 10 mg/kg): 97 ng/mL; Tmax ([2]; oral, 10 mg/kg): 30 min; half-life ([2]; oral, 10 mg/kg): 173 min
0.125 (≈ 0.277 µM)	0.25 (≈ 0.554 µM)	1 (≈ 2.21 µM)	4 (≈ 8.86 µM)	16 (≈ 35.4 µM)	COc1ccc2ncc(C#N)c(CCN3CCC(NCc4ccc([N+](=O)[O-])s4)CC3)c2c1 [VT-03-00052]								MIC (MRSA E9823): 0.25 µg/mL (≈ 0.554 µM); MIC (MRSA E9749): 0.25 µg/mL (≈ 0.554 µM)
					COc1ccc2ncc(=O)n(CCN3CC[C@H](NCc4ccc(C)c([N+](=O)[O-])c4)[C@H](F)C3)c2c1 [VT-03-00134]	0.015 (≈ 0.0319 µM)	2 (≈ 4.26 µM)	0.25 (≈ 0.532 µM)	0.5 (≈ 1.06 µM)	32 (≈ 68.2 µM)			
					Cc1ccc(CNC2CCN(CCn3c(=O)cnc4ccc(F)cc43)CC2)cc1C#N [VT-03-00117]	0.125 (≈ 0.298 µM)	0.5 (≈ 1.19 µM)	0.25 (≈ 0.596 µM)	0.25 (≈ 0.596 µM)	16 (≈ 38.1 µM)	88.2	97.5	

SMILES	MIC [4] [µg/mL]	MIC [1, 11] [µg/mL]	MIC [5] [µg/mL]	MIC [6] [µg/mL]	MIC (E. coli (ATCC 25922); [12]) [µg/mL]	MIC [1, 9] [µg/mL]	MIC (E. coli (ATCC 25922); [10]) [µg/mL]	MIC (E. faecalis ATCC 51299) [µg/mL]	MIC (Acinetobacter BAA747) [µg/mL]	MIC (Pseudomonas ATCC 27853) [µg/mL]	inhibition at 0.1 µM [3] [%]	inhibition at 1 µM [3] [%]	further results
COc1ccc2ncc(=O)n(CCN3CCC(NCc4csc([N+](=O)[O-])c4)CC3)c2c1 [VT-03-00057]	0.12 (≈ 0.271 µM)	0.25 (≈ 0.564 µM)	0.5 (≈ 1.13 µM)	2 (≈ 4.51 µM)	2 (≈ 4.51 µM)								MIC [7]: 0.5 µg/mL (≈ 1.13 µM); MIC [8]: > 32 µg/mL; MIC (MRSA E9823): 0.25 µg/mL (≈ 0.564 µM); MIC (MRSA E9749): 0.25 µg/mL (≈ 0.564 µM); MIC (E. coli E1851): 2 µg/mL (≈ 4.51 µM); MIC (E. coli U1306): 16 µg/mL (≈ 36.1 µM); MIC (E. coli U5690): 8 µg/mL (≈ 18 µM); MIC (E. coli 86): 16 µg/mL (≈ 36.1 µM); inhibition at 0.1 µM (E. coli Gyrase; 0.1 μM compound): 61.4%; inhibition at 1 µM (E. coli Gyrase; 1 μM compound): 90.6%
